System: 855422-203-R-J1-PDC complex spheroid viability
Assay: Anticancer human tumor 855422-203-R-J1-PDC patient-derived bladder carcinoma cell line growth inhibition [POLQ]
Conditions: for IC50: curve of first compound; for viability, T/C: stronger effect = lower value
Procedure: Multicellular complex tumor spheroid response to Polymerase (POL) inhibitors (novobiocin, ART-558, RP6685) in combination with a variety of drugs and investigational agents in selected tumor cell lines
The POL inhibitors (novobiocin, ART-558, and RP6685) were evaluated both individually and in combination with standard of care and investigational anticancer small molecules within a complex spheroid model of solid tumors. . Complex spheroids include a stromal component modeled by human endothelial cells (HUVEC) and fibroblasts modeled by human mesenchymal stem cells (MSCs). The concentration ranges selected for each drug and investigational agent were based upon clinically achievable concentrations if the clinical Cmax of the agent was known.
Compounds. The drugs and investigational agents: novobiocin (NSC847541), ART-558 (NSC835418), RP-6685 (NSC848927), peposertib (NSC802822), ceralasertib (NSC780249), elimusertib (NSC800525), camonsertib (NSC841442), AZD-1390 (NSC803789), olaparib (NSC753686), talazoparib (NSC767125), rucaparib (NSC756644), sotorasib (NSC818433), MRTX-1133 (NSC836407), SN-38 (NSC673596), topotecan (NSC609699), epotoside (NSC141540), doxorubicin (NSC123127), gemcitabine (NSC613327), 5-fluorouracil (NSC19893), paclitaxel (NSC125973), vemurafenib (NSC761431), MSA-2 (NSC828583), SN-011 (NSC837082), adavosertib (NSC754352), prexasertib (NSC758257), carboplatin (NSC241240) and oxaliplatin (NSC266046), were obtained from the National Cancer Institute (NCI) Developmental Therapeutics Program Chemical Repository (21). The FDA-approved anticancer drug set is available from the Developmental Therapeutics Program at https://dtp.cancer.gov/organization/dscb/obtaining/. […] The stock solutions were prepared in dimethyl sulfoxide (DMSO, Sigma-Aldrich, St. Louis, MO, cat. D2650), except for the platinum compounds which were prepared in saline (Quality Biological, Gaithersburg, MD, cat. 114-055-101), at 800-fold the tested concentration and stored at -70 degrees C prior to their use. All drugs and investigational agents were tested over a range starting from a high concentration at or near the clinical Cmax and decreasing in half-log increments. If the clinical Cmax for an agent had not been determined, the highest concentration tested was 10 microM, except for SN-38, which was tested at a high concentration of 1 microM.
Cell Culture. All cells were maintained in an incubator at 37 degrees C and 5% CO2 with 95% humidity. The PDC lines were cultured according to standard operating procedures established by the NCI PDMR (https://pdmr.cancer.gov). Table 3 of the manuscript, lists the cell lines along with the number of the three cell types plated to form the mct-spheroids and media for tumor cell growth. After thawing, all PDC lines, except 997537-175-T-J1-PDC and 415267-285-R-J2-PDC, were cultured in Matrigel-coated flasks prepared with a working solution of 1X Ham's F-12 nutrient mix, without supplementation (Thermo Fisher Scientific, cat. 11765054), 100 U/mL penicillin-streptomycin (Thermo Fisher Scientific, cat. 15140122), and 2.5% Matrigel (Corning Inc., Corning, NY, cat. 354248) for the first three passages. The two PDC lines 997537-175-T-J1-PDC and 415267-285-R-J2-PDC were cultured on uncoated flasks. The 857933-349-R-J2-PDC line was cultured in 6C/Colon 1B media containing advanced DMEM/F-12 (Thermo Fisher Scientific, cat. 12634028), 10 mM HEPES (Thermo Fisher Scientific, cat. 15630080), 1X GlutaMAX supplement (Thermo Fisher Scientific, cat. 35050061), 0.1 mg/mL primocin (InvivoGen, San Diego, CA, cat. ant-pm-2), 10% defined fetal bovine serum, heat inactivated (HyClone Laboratories Inc., Logan, UT, cat. SH30070.03HI), 50% L-WRN conditioned media (ATCC, cat. CRL-3276), 1.25 mM N-Acetyl-L-cysteine (Sigma-Aldrich, cat. A9165), 10 mM nicotinamide (Sigma-Aldrich, cat. N0636), 1X B-27 supplement (Thermo Fisher Scientific, cat. 17504044), 1X N-2 supplement (Thermo Fisher Scientific, cat. […]

[1] = second compound 0.0316 µM, first compound 0.0316 µM
[2] = second compound 0.0316 µM, first compound 0.1 µM
[3] = second compound 0.0316 µM, first compound 0.316 µM
[4] = second compound 0.0316 µM, first compound 1 µM
[5] = second compound 0.0316 µM, first compound 3.16 µM
[6] = second compound 0.0316 µM, first compound 10 µM
[7] = second compound 0.1 µM, first compound 0.0316 µM
[8] = second compound 0.1 µM, first compound 0.1 µM
[9] = second compound 0.1 µM, first compound 0.316 µM
[10] = second compound 0.1 µM, first compound 1 µM
[11] = second compound 0.1 µM, first compound 3.16 µM
[12] = second compound 0.1 µM, first compound 10 µM
[13] = second compound 0.316 µM, first compound 0.0316 µM
[14] = second compound 0.316 µM, first compound 0.1 µM
[15] = second compound 0.316 µM, first compound 0.316 µM
[16] = second compound 0.316 µM, first compound 1 µM
[17] = second compound 0.316 µM, first compound 3.16 µM
[18] = second compound 0.316 µM, first compound 10 µM
[19] = second compound 1 µM, first compound 0.0316 µM
[20] = second compound 1 µM, first compound 0.1 µM
[21] = second compound 1 µM, first compound 0.316 µM
[22] = second compound 1 µM, first compound 1 µM
[23] = second compound 1 µM, first compound 3.16 µM
[24] = second compound 1 µM, first compound 10 µM
[25] = second compound 3.16 µM, first compound 0.0316 µM
[26] = second compound 3.16 µM, first compound 0.1 µM
[27] = second compound 3.16 µM, first compound 0.316 µM
[28] = second compound 3.16 µM, first compound 1 µM
[29] = second compound 3.16 µM, first compound 3.16 µM
[30] = second compound 3.16 µM, first compound 10 µM
[31] = second compound 10 µM, first compound 0.0316 µM
[32] = second compound 10 µM, first compound 0.1 µM
[33] = second compound 10 µM, first compound 0.316 µM
[34] = second compound 10 µM, first compound 1 µM
[35] = second compound 10 µM, first compound 3.16 µM
[36] = second compound 10 µM, first compound 10 µM
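Further: spheroids exposed to compounds for seven days before readout.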

O=C(c1cc(Cc2n[nH]c(=O)c3ccccc23)ccc1F)N1CCN(C(=O)C2CC2)CC1 + Nc1ccc(C#CCN(C(=O)Cc2ncc(C(F)(F)F)cc2C(F)(F)F)c2ccc(F)cc2)nn1
IC50 (second compound 0.0316 µM): > 10 µM
IC50 (second compound 0.1 µM): > 10 µM
IC50 (second compound 0.316 µM): > 10 µM
IC50 (second compound 1 µM): > 10 µM
IC50 (second compound 3.16 µM): > 10 µM
IC50 (second compound 10 µM): > 10 µM
viability, T/C [1]: 97.5%
viability, T/C [2]: 126%
viability, T/C [3]: 104%
viability, T/C [4]: 98%
viability, T/C [5]: 94%
viability, T/C [6]: 150%
viability, T/C [7]: 95%
viability, T/C [8]: 132%
viability, T/C [9]: 113%
viability, T/C [10]: 90.8%
viability, T/C [11]: 125%
viability, T/C [12]: 119%
viability, T/C [13]: 91.6%
viability, T/C [14]: 128%
viability, T/C [15]: 96.9%
viability, T/C [16]: 98.8%
viability, T/C [17]: 129%
viability, T/C [18]: 162%
viability, T/C [19]: 98.7%
viability, T/C [20]: 113%
viability, T/C [21]: 105%
viability, T/C [22]: 109%
viability, T/C [23]: 121%
viability, T/C [24]: 163%
viability, T/C [25]: 97.6%
viability, T/C [26]: 114%
viability, T/C [27]: 100%
viability, T/C [28]: 107%
viability, T/C [29]: 105%
viability, T/C [30]: 134%
viability, T/C [31]: 99.4%
viability, T/C [32]: 102%
viability, T/C [33]: 123%
viability, T/C [34]: 99.6%
viability, T/C [35]: 113%
viability, T/C [36]: 109%

COc1ccc([C@@H](O)c2cc(-c3ncnc4cc(N5CCOCC5)ccc34)c(F)cc2Cl)nn1 + Nc1ccc(C#CCN(C(=O)Cc2ncc(C(F)(F)F)cc2C(F)(F)F)c2ccc(F)cc2)nn1
IC50 (second compound 0.0316 µM): > 10 µM
IC50 (second compound 0.1 µM): > 10 µM
IC50 (second compound 0.316 µM): > 10 µM
IC50 (second compound 1 µM): > 10 µM
IC50 (second compound 3.16 µM): > 10 µM
IC50 (second compound 10 µM): 9.83 µM
viability, T/C [1]: 110%
viability, T/C [2]: 105%
viability, T/C [3]: 89%
viability, T/C [4]: 94.5%
viability, T/C [5]: 106%
viability, T/C [6]: 58.4%
viability, T/C [7]: 91.8%
viability, T/C [8]: 104%
viability, T/C [9]: 104%
viability, T/C [10]: 98.1%
viability, T/C [11]: 106%
viability, T/C [12]: 59.4%
viability, T/C [13]: 115%
viability, T/C [14]: 126%
viability, T/C [15]: 86.4%
viability, T/C [16]: 98.5%
viability, T/C [17]: 110%
viability, T/C [18]: 54.3%
viability, T/C [19]: 99.8%
viability, T/C [20]: 96.8%
viability, T/C [21]: 93.4%
viability, T/C [22]: 104%
viability, T/C [23]: 111%
viability, T/C [24]: 51%
viability, T/C [25]: 94.6%
viability, T/C [26]: 105%
viability, T/C [27]: 87.5%
viability, T/C [28]: 94.2%
viability, T/C [29]: 90.7%
viability, T/C [30]: 57.4%
viability, T/C [31]: 92.3%
viability, T/C [32]: 92.5%
viability, T/C [33]: 98.3%
viability, T/C [34]: 86.2%
viability, T/C [35]: 98.6%
viability, T/C [36]: 49.3%

Reference: PubChem BioAssay AID1963838 (Molecular Pharmacology Branch, DTP, NCI, 2024)
